24 molecules from PubChem BioAssay AID330 (DTP/NCI, 2004) can be followed below.

The test relates to P388 leukemia ip, CD2F1 mice, survival T/C. The experiment in a line: NCI In Vivo Anticancer Drug Screen. Data for tumor model P388 Leukemia (intraperitoneal) in CD2F1 (CDF1) mice. The note with it: endpoint: median survival time, higher = longer survival. The essentials: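 Mice carrying the transplanted tumor received test compound or vehicle. Survival was recorded in each group, and the value is the treated-group measurement divided by that of the vehicle-treated control group.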

[1] abbreviates: dose: 50.0 mg/kg/injection, schedule: Q01DX005 (ip), vehicle: saline with Tween-80.
Setting [2] is: dose: 100.0 mg/kg/injection, schedule: Q01DX005 (ip), vehicle: saline with Tween-80.
The mark [3] stands for this setting: dose: 200.0 mg/kg/injection, schedule: Q01DX005 (ip), vehicle: saline with Tween-80.
Where [4] appears, read: dose: 25.0 mg/kg/injection, schedule: Q04DX003 (ip), vehicle: saline with Tween-80.
Where [5] appears, read: dose: 50.0 mg/kg/injection, schedule: Q04DX003 (ip), vehicle: saline with Tween-80.
Where [6] appears, read: dose: 100.0 mg/kg/injection, schedule: Q04DX003 (ip), vehicle: Klucel (hydroxypropylcellulose) (HPC).
Where [7] appears, read: dose: 400.0 mg/kg/injection, schedule: Q04DX003 (ip), vehicle: Klucel (hydroxypropylcellulose) (HPC).
Where [8] appears, read: dose: 100.0 mg/kg/injection, schedule: Q04DX003 (ip), vehicle: saline.
[9] abbreviates: dose: 25.0 mg/kg/injection, schedule: Q01DX009 (ip), vehicle: Klucel (hydroxypropylcellulose) (HPC).
Setting [10] is: dose: 50.0 mg/kg/injection, schedule: Q01DX009 (ip), vehicle: Klucel (hydroxypropylcellulose) (HPC).
Where [11] appears, read: dose: 100.0 mg/kg/injection, schedule: Q01DX009 (ip), vehicle: Klucel (hydroxypropylcellulose) (HPC).
Setting [12] is: dose: 200.0 mg/kg/injection, schedule: Q01DX009 (ip), vehicle: Klucel (hydroxypropylcellulose) (HPC).

Where “and” joins values, the source holds several entries; their conditions need not be identical. Equal values may be shown once. Inconclusive results and toxic doses are left out.

`CCOC(=O)c1cc2c(nn3c(C)cccc23)n(CC)c1=N`: the T/C reads like this: (dose: 3.12 mg/kg/injection, schedule: Q01DX001 (ip), vehicle: saline) 100 % of control and 101 % of control; (dose: 6.25 mg/kg/injection, schedule: Q01DX001 (ip), vehicle: saline) 101 % of control and 105 % of control; (dose: 12.5 mg/kg/injection, schedule: Q01DX001 (ip), vehicle: saline) 100 % of control and 98 % of control; (dose: 25.0 mg/kg/injection, schedule: Q01DX001 (ip), vehicle: saline) 103 % of control and 93 % of control.

Take `O=C1NCCCCCC1S(=O)c1ccccc1` (centres undefined): the T/C reads like this: under setting [1], 103 % of control; under setting [2], 96 % of control; under setting [3], 101 % of control.

On to `CN=C(NC(C)C)c1ccc(NC(=O)c2ccc(C(=O)Nc3ccc(C(=NC)NC(C)C)cc3)cc2)cc1`, for which the T/C (dose: 32.0 mg/kg/injection, schedule: Q01DX009 (ip), vehicle: saline) was 122 % of control; the T/C (dose: 64.0 mg/kg/injection, schedule: Q01DX009 (ip), vehicle: saline) is 109 % of control; the T/C (dose: 96.0 mg/kg/injection, schedule: Q04DX003 (ip), vehicle: saline with Tween-80) is 154 % of control.

With `CC(C)=Cc1cc(-c2cc(C=C(C)C)on2)no1`, the T/C (dose: 60.0 mg/kg/injection, schedule: Q01DX005 (ip), vehicle: saline) is 100 % of control; the T/C (dose: 120.0 mg/kg/injection, schedule: Q01DX005 (ip), vehicle: saline) was 104 % of control; the T/C (dose: 240.0 mg/kg/injection, schedule: Q01DX005 (ip), vehicle: saline) was 100 % of control.

As for `Cc1cc(C)[nH]n1`, the T/C reads like this: (dose: 100.0 mg/kg/injection, schedule: Q01DX009 (ip), vehicle: saline with Tween-80) 110 % of control; (dose: 200.0 mg/kg/injection, schedule: Q01DX009 (ip), vehicle: saline with Tween-80) 105 % of control; (dose: 400.0 mg/kg/injection, schedule: Q01DX009 (ip), vehicle: saline with Tween-80) 120 % of control.

Turning to `NC(=O)c1ccccc1NCCc1ccccc1`, the T/C is 91 % of control under setting [4]; 100 % of control under setting [5]; 104 % of control and 97 % of control (dose: 100.0 mg/kg/injection, schedule: Q04DX003 (ip), vehicle: saline with Tween-80); 97 % of control (dose: 400.0 mg/kg/injection, schedule: Q04DX003 (ip), vehicle: saline with Tween-80).

Regarding `CC(=O)c1cccc(OCC(O)CN2CCN(c3ccc(C)cc3)CC2)c1` (centres undefined), the T/C was 107 % of control under setting [6] and 91 % of control under setting [7].

For `Cc1c(Cl)cccc1Nc1ncccc1C(=O)O`, the T/C is, setting by setting: under setting [1], 95 % of control; under setting [2], 105 % of control.

As for `NC(=O)CCn1cnc2c(N)ncnc21`, the T/C by setting is: (dose: 25.0 mg/kg/injection, schedule: Q04DX003 (ip), vehicle: saline) 100 % of control; (dose: 50.0 mg/kg/injection, schedule: Q04DX003 (ip), vehicle: saline) 100 % of control; under setting [8], 99 % of control.

As to `CC(C)(O)[C@H]1[C@@H]2OC(=O)[C@H]1[C@]1(O)C[C@H]3OC34C(=O)O[C@H]2[C@@]41C` (some centres undefined) (tested in a mixture with another compound), the T/C was 99 % of control (dose: 0.25 mg/kg/injection, schedule: Q01DX009 (ip), vehicle: Klucel (hydroxypropylcellulose) (HPC)); 113 % of control (dose: 0.5 mg/kg/injection, schedule: Q01DX009 (ip), vehicle: Klucel (hydroxypropylcellulose) (HPC)); 100 % of control (dose: 1.0 mg/kg/injection, schedule: Q01DX009 (ip), vehicle: Klucel (hydroxypropylcellulose) (HPC)); 96 % of control (dose: 2.0 mg/kg/injection, schedule: Q01DX009 (ip), vehicle: Klucel (hydroxypropylcellulose) (HPC)); 99 % of control under setting [9]; 105 % of control under setting [10]. The T/C was 106 % of control under setting [11] and 96 % of control under setting [12].

Consider `CCCCCCN(CCCCCC)CC(O)c1cccc2ccc(Cl)cc12` (centres undefined), for which the T/C under setting [1] is 90 % of control, the T/C under setting [2] was 95 % of control and the T/C under setting [3] is 109 % of control.

With `O=S(=O)(c1ccc(NC(=S)N2CCCCC2)cc1)N1CCCCC1`, the T/C by setting is: under setting [10], 95 % of control; under setting [11], 88 % of control; under setting [12], 86 % of control.

For `COC(=O)C(C(=O)OC)=S1C=CC=C1`, the T/C is 106 % of control under setting [8]; 100 % of control (dose: 200.0 mg/kg/injection, schedule: Q04DX003 (ip), vehicle: saline); 106 % of control (dose: 400.0 mg/kg/injection, schedule: Q04DX003 (ip), vehicle: saline).

As for `O=c1[nH]c2c(ccc3cccnc32)c2c1CCC2`, the T/C is 98 % of control (dose: 12.5 mg/kg/injection, schedule: Q04DX003 (ip), vehicle: saline with Tween-80); 95 % of control under setting [4]; 98 % of control under setting [5].

Regarding `COC(OC)C(C(=O)c1ccc(OCc2ccccc2)cc1O)c1cc2c(cc1OCc1ccccc1)OCO2` (centres undefined), the T/C is 96 % of control under setting [6]; 101 % of control (dose: 200.0 mg/kg/injection, schedule: Q04DX003 (ip), vehicle: Klucel (hydroxypropylcellulose) (HPC)); 98 % of control under setting [7].

Consider `CNC(=S)N/N=C/c1ccc([N+](=O)[O-])s1`, for which the T/C is 99 % of control (dose: 6.25 mg/kg/injection, schedule: Q01DX009 (ip), vehicle: saline with Tween-80); 89 % of control (dose: 12.5 mg/kg/injection, schedule: Q01DX009 (ip), vehicle: saline with Tween-80); 88 % of control (dose: 25.0 mg/kg/injection, schedule: Q01DX009 (ip), vehicle: saline with Tween-80).

In the case of `CCN(CC)P(c1ccccc1)N(CC)CC`, the T/C (dose: 100.0 mg/kg/injection, schedule: Q01DX001 (ip), vehicle: saline) was 101 % of control; the T/C (dose: 200.0 mg/kg/injection, schedule: Q01DX001 (ip), vehicle: saline) was 111 % of control; the T/C (dose: 400.0 mg/kg/injection, schedule: Q01DX001 (ip), vehicle: saline) was 104 % of control.

With `Cc1ccc(NS(=O)(=O)N2CCCCC2)cc1`, the T/C by setting is: (dose: 12.5 mg/kg/injection, schedule: Q01DX009 (ip), vehicle: Klucel (hydroxypropylcellulose) (HPC)) 106 % of control; under setting [9], 95 % of control; under setting [10], 98 % of control; under setting [11], 116 % of control; under setting [12], 115 % of control; (dose: 400.0 mg/kg/injection, schedule: Q01DX009 (ip), vehicle: Klucel (hydroxypropylcellulose) (HPC)) 113 % of control.

On to `N#CC(C(=O)C(=O)C(C#N)c1nc2ccccc2s1)c1nc2ccccc2s1` (centres undefined), for which the T/C reads like this: (dose: 60.0 mg/kg/injection, schedule: Q01DX005 (ip), vehicle: saline with Tween-80) 92 % of control; (dose: 120.0 mg/kg/injection, schedule: Q01DX005 (ip), vehicle: saline with Tween-80) 101 % of control; (dose: 240.0 mg/kg/injection, schedule: Q01DX005 (ip), vehicle: saline with Tween-80) 103 % of control.

Regarding `CSc1nc(N)c(C(=O)Nc2cccc3ccccc23)s1`, the T/C runs as follows: under setting [10], 100 % of control; under setting [11], 97 % of control; under setting [12], 97 % of control.

Take `CCC[CH2][Sn]([Cl])([CH2]CCC)[S]C(=S)NCCNC(=S)[S][Sn]([Cl])([CH2]CCC)[CH2]CCC`: the T/C reads like this: (dose: 0.78 mg/kg/injection, schedule: Q01DX009 (ip), vehicle: Klucel (hydroxypropylcellulose) (HPC)) 93 % of control; (dose: 1.56 mg/kg/injection, schedule: Q01DX009 (ip), vehicle: Klucel (hydroxypropylcellulose) (HPC)) 98 % of control.

On to `O=S(=O)(O)c1ccccc1O`, for which the T/C (dose: 25.0 mg/kg/injection, schedule: Q01DX001 (ip), vehicle: saline with Tween-80) is 111 % of control; the T/C (dose: 50.0 mg/kg/injection, schedule: Q01DX001 (ip), vehicle: saline with Tween-80) is 98 % of control; the T/C (dose: 100.0 mg/kg/injection, schedule: Q01DX001 (ip), vehicle: saline with Tween-80) is 99 % of control.

`C[C@]12CC[C@@H]3c4ccc(OCCO)c([N+](=O)[O-])c4CC[C@H]3[C@@H]1CCC2=O`: the T/C under setting [1] was 104 % of control, the T/C under setting [2] was 104 % of control and the T/C under setting [3] is 97 % of control.

In the case of `CCOc1ccc(N2CC(=O)N3CCCN3C(=O)C2)cc1`, the T/C is 96 % of control (dose: 6.25 mg/kg/injection, schedule: Q01DX005 (ip), vehicle: saline with Tween-80); 102 % of control (dose: 12.5 mg/kg/injection, schedule: Q01DX005 (ip), vehicle: saline with Tween-80); 100 % of control (dose: 25.0 mg/kg/injection, schedule: Q01DX005 (ip), vehicle: saline with Tween-80).
